According to patent publication US20220257706A1, “EPIDERMAL GROWTH FACTOR RECEPTOR (EGFR) LIGANDS” (NANYANG TECHNOLOGICAL UNIVERSITY, priority 2019, published 2022):

Key:
[1] = system: pepsin, trypsin, pronase, human neutrophil elastase; test: Proteolytic stability against a panel of proteases; conditions: human
Protocol: (§4) Samples were collected at various time points.
(§5) All collected samples from various stability assays were analyzed by RP-HPLC with a linear gradient of mobile phase A (0.05% TFA/H2O) and mobile phase B (0.05% TFA/ACN) on aeris peptide XB-C18 column (Phenomenex, US). The resulting peaks were collected and identified by MALDI-TOF MS. The results were expressed as percentage of initial concentration using the peak area of the HPLC profile.

HaCaT cells [2] = test: Cell migration scratch assay; type: cell-based, human; conditions: data not shown
Protocol: Cell migration was monitored using the scratch assay. Briefly, HaCaT cells were seeded into 2 well silicone inserts with a defined gap of 500 μm (ibidi, Germany). […] After incubation for 8 h, the wells were photographed using inverted phase-contrast microscope. Images were analyzed for the percentage of cell-free area using the Wimasis image analysis platform.

c-Jun = test: Gene expression analysis (qPCR) of c-Jun in HaCaT cells; type: cell-based, human; conditions: 2 h treatment
Protocol: (§1) Total RNA was extracted from HaCaT and primary human keratinocytes using PureLink™ RNA mini kit (Thermo Fisher Scientific, US). First-strand cDNA was synthesised from 600 ng of total RNA using SuperScript™ II Reverse Transcriptase and Oligo(dT)12-18 (Thermo Fisher Scientific, US) according to the manufacturer's instructions. Quantitative PCR (qPCR) was performed with iTaq Universal SYBR Green Supermix (Bio-Rad, US) on a CFX96 Touch Real-Time PCR Detection System (Bio-Rad, US) for 40 cycles. PCR reaction (20 μL): 3 μL cDNA, 1 μL primer mix (10 μM), 6 μL DEPC-treated water and 10 μL mastermix. […] GAPDH was used as a housekeeping gene for normalization. Fold changes of gene expressions with c-fos and c-Jun were calculated using the 2^−ΔΔCT method.

c-fos = test: Gene expression analysis (qPCR) of c-fos in HaCaT cells; type: cell-based, human; conditions: 2 h treatment
Protocol: as §1

Human serum stability = conditions: 25% human serum
Protocol: The test samples were incubated at 37° C. Samples were collected at various time points. The collected samples were subjected to protein precipitation with 100% ethanol and centrifugation at 180,000 g for 5 min at 4° C. The supernatant was collected for analysis.
as §5

[3] = Acid stability (0.2 M HCl, 37° C.)
Protocol: as §4, §5

HaCaT cells [4] = type: cell-based, human
Protocol: (§2) HaCaT (human keratinocyte), HUVEC-CS (endothelial cells) cells were cultured in Dulbecco's modification of Eagle's medium (DMEM) supplemented with 10% fetal bovine serum and 100 U/mL of penicillin and streptomycin. Normal Human Epidermal Keratinocytes adult purchased from Lifeline® cell technology were cultured in Lifeline® DermaLife K Medium. They were grown in a 5% CO2 humidified incubator at 37° C. HaCaT cells were stably transfected with pGL4.33[luc2P/SRE/Hygro] (Promega) and selected using 250 μg/mL hygromycin. Stable HaCaT cells expressing SRE luciferase reporter were maintained with 250 μg/mL hygromycin.
(§3) Cell proliferation was determined using crystal violet staining. […] 3417-Da-peptide aB1 is a CRP isolated from Achyranthes bidentata with the amino acid sequence […] (SEQ ID NO:11). Crystal violet staining was performed as previously described. Briefly, after the incubation period, the wells were fixed with 4% buffered paraformaldehyde for 20 min. The cells were then stained with 0.25% crystal violet in 20% methanol for 15 min. The excess crystal violet stain was rinsed with distilled water for 4-5 times and air-dried. Glacial acetic acid (10%) in Milli-Q water was added to extract the crystal violet stain. The absorbance was then measured at 595 nm using a microplate reader (Tecan Infinite® 200 Pro, Switzerland).

newborn ICR mice = test: Newborn mice model for incisor eruption; type: in vivo, mouse; conditions: 3 mg/kg subcutaneous, five consecutive days; saline control 153 h
Protocol: ICR mice were obtained from Vital Rital Laboratories (Beijing, China). […] All experiments were approved and performed in accordance with the institutional guidelines of the Experimental Animal Center of the Chinese Academy of Medical Science (Beijing, China). Subcutaneous injections were made for five consecutive days in the nape of the neck of the newborn mice starting from the day of birth (day 0). […] Incisor eruption was recorded daily by visual inspection. Incisor eruption was defined as the time at which a given tooth first pierced the oral epithelium.

HaCaT cells [5] = test: EdU incorporation assay (DNA synthesis); type: cell-based, human
Protocol: EdU incorporation assay was performed using an EdU proliferative kit (iFluor 488) according to manufacturer's instructions. Briefly, 2.5×10^4 HaCaT cells per well were seeded in a 96-well plate. […] Cells were then fixed, permeabilized, and incubated in a reaction mix containing iFluor 488 for 30 min. The nuclei were stained using DAPI. The plates were visualized using a fluorescence microscope.

[6] = system: serum response element (SRE); test: SRE luciferase reporter assay in stable HaCaT cells; type: cell-based, human; conditions: 6 h incubation
Protocol: as §2
Briefly, the cells were cultured in a white 96-well plates to achieve 90% confluency. […] The luciferase assay was performed using the ONE-Glo EX Luciferase Assay System (Promega, US) as per the manufacturer's instructions. Luminescence was measured using a microplate reader (Tecan Infinite® 200 Pro, Switzerland).

MEK1/2 = test: Western blot of phosphorylated MEK1/2 in HaCaT cells; type: cell-based, human; conditions: 5 μM
Protocol: Blot transfer was performed onto a PVDF membrane (GE healthcare, Sweden) at 250 mA for 120 min on ice. The blot was blocked with 5% BSA TBST before incubating overnight at 4° C. with anti-P-MEK1/2 rabbit antibody (1:2000 in 5% BSA TBST; Cell Signaling, US), anti-MEK1/2 rabbit antibody (1:2000 in 5% BSA TBST; Cell Signaling, US), anti-P-ERK1/2 rabbit antibody (1:2000 in 5% BSA TBST; Cell Signaling, US), anti-ERK1/2 rabbit antibody (1:2000 in 5% BSA TBST; Cell Signaling, US), and anti-β-actin mouse antibody (1:10000 in 5% BSA TBST; Merck Millipore, US). After incubation, the membrane was washed with TBST at room temperature three times for 10 min each. The blot was then incubated with secondary anti-mouse or anti-rabbit horseradish peroxidase (HRP) (1:5000 in 5% BSA TBST; Cell Signaling, US) and was incubated for another 1 h at room temperature. The blot was washed five times 10 min each with TBST at room temperature before addition of chemiluminescence substrate (Advansta, US) and exposure on X-ray film (Fujifilm, Japan).

[7] = system: primary human keratinocytes; test: Primary human keratinocyte proliferation (crystal violet); type: cell-based; conditions: 72 h, crystal violet assay
Protocol: as §2, §3

[8] = Heat stability (100° C., RP-HPLC); type: physicochemical; conditions: 100° C.; read-out: calculated t1/2, heat treatment
Protocol: Samples were collected at various time points (0, 30, 60, and 120 min).

CC[C@H](C)[C@@H]1NC(=O)[C@H](CCC(=O)O)NC(=O)[C@H]([C@@H](C)O)NC(=O)[C@@H]2CSSC[C@@H]3NC(=O)[C@H](Cc4ccccc4)NC(=O)[C@H](CC(N)=O)NC(=O)[C@H](CO)NC(=O)[C@H](CSSC[C@H](NC(=O)[C@@H](N)CCC(N)=O)C(=O)N[C@@H](CCCCN)C(=O)N4CCC[C@H]4C(=O)N[C@@H](CC(N)=O)C(=O)NCC(=O)N[C@@H](C)C(=O)N[C@@H](CCCCN)C(=O)N2)NC(=O)[C@H](CSSC[C@@H](C(=O)N[C@@H](C)C(=O)N[C@@H](CC(N)=O)C(=O)N[C@@H](CCCNC(=N)N)C(=O)O)NC(=O)[C@H]([C@@H](C)O)NC(=O)CNC(=O)[C@H](CO)NC(=O)[C@H](CCCCN)NC(=O)[C@H](CCC(N)=O)NC(=O)CNC(=O)[C@H](C)NC(=O)[C@H](Cc2ccc(O)cc2)NC(=O)[C@H](CCCNC(=N)N)NC(=O)[C@H](CC(C)C)NC3=O)NC(=O)[C@@H]2CCCN2C(=O)[C@@H]2CCCN2C(=O)[C@H]([C@@H](C)CC)NC(=O)[C@H](CO)NC1=O [bleogen pB1]
half-life at 0.1 M [1]: > 8.33 h | HaCaT cell migration (HaCaT cells [2]): accelerate | mRNA expression of c-Jun (c-Jun): significantly upregulate | mRNA expression of c-fos (c-fos): significantly upregulate | half-life at 0.1 M (Human serum stability): > 800 h | half-life at 0.1 M [3]: > 8.33 h | proliferative activities on HaCaT cells, native versus synthetic (HaCaT cells [4]): identical proliferative activities | EC50 (HaCaT cells [4]; 72 h): 130 nM | difference in mitogenic potency between EGF and pB1 (HaCaT cells [4]; HaCaT cell proliferation EC50): 100 fold | EGFR dependence of proliferative/mitogenic effect (HaCaT cells [4]; co-incubation with EGFR neutralizing antibody (clone LA1)): EGFR-dependent | time of incisor eruption in newborn mice (newborn ICR mice): 125 h | DNA synthesis of HaCaT cells (EdU incorporation) (HaCaT cells [5]): enhances DNA synthesis | SRE-luciferase activity [6]: dose-dependently, increases the luciferase activity | phosphorylation of MEK1/2 (MEK1/2): induces the phosphorylation | proliferation of primary human keratinocytes [7]: promotes the proliferation | half-life at 0.1 M [8]: > 8.33 h
